Holding throughout (format): in vivo
Test [1] relates to Beet Armyworm (Spodoptera exigua). In words: Bioassay on Beet Armyworm (BAW), 128-well diet tray assay. Particulars: Beet Armyworm, Table ABC, read-out: BAW rating. A digest of the protocol:
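Percent mortality, averaged over eight wells, was scored after five to seven days at 25° C under 14:10 light-dark. Each well's diet carried 50 μg/cm^2 of test molecule applied in acetone-water (90:10) and dried before one to five second-instar larvae were added.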

Test [2] has as its system Cabbage Looper (Trichoplusia ni). Kind of test: Bioassay on Cabbage Looper (CL), 128-well diet tray assay. Particulars: Cabbage Looper, Table ABC, read-out: CL rating. The method, boiled down: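 Mortality after five to seven days at 25° C (14:10 photoperiod), averaged over eight wells per compound. Diet in each well carried 50 μg/cm^2 of dried test molecule and received one to five second-instar larvae.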

In test [3] the test system is Yellow Fever Mosquito (Aedes aegypti). In words: Bioassay on Yellow Fever Mosquito (YFM) larvae, 96-well plate. Particulars: Table ABC. The protocol: Example C: Bioassays on Yellow Fever Mosquito (Aedes Aegypti, AEDSAE) (“YFM”)
Certain molecules disclosed in this document were tested against YFM using procedures described in the following paragraph. In the reporting of the results, the “GPA & YFM Rating Table” was used (See Table Section).
Master plates containing 400 μg of a molecule dissolved in 100 μL of dimethyl sulfoxide (DMSO) (equivalent to a 4000 ppm solution) are used. A master plate of assembled molecules contains 15 μL per well. To this plate, 135 μL of a 90:10 water:acetone mixture is added to each well. A robot (Biomek® NXP Laboratory Automation Workstation) is programmed to dispense 15 μL aspirations from the master plate into an empty 96-well shallow plate (“daughter” plate). There are 6 reps (“daughter” plates) created per master. The created daughter plates are then immediately infested with YFM larvae.
The day before plates are to be treated, mosquito eggs are placed in Millipore water containing liver powder to begin hatching (4 g. into 400 mL). After the daughter plates are created using the robot, they are infested with 220 μL of the liver powder/larval mosquito mixture (about 1 day-old larvae). After plates are infested with mosquito larvae, a non-evaporative lid is used to cover the plate to reduce drying. Plates are held at room temperature for 3 days prior to grading. After 3 days, each well is observed and scored based on mortality. The results are indicated in the table entitled “Table ABC: Biological Results” (See Table Section).

Consider `C[C@@H](NC(=O)c1ccc(/C(F)=C/C(c2ccc(Cl)c(Cl)c2)C(F)(F)F)cc1C(F)(F)F)C(=O)NCC(F)(F)F` (stereo partly drawn) [F42, 4-((Z)-3-(3,4-Dichlorophenyl)-1,4,4,4-tetrafluorobut-1-en-1-yl)-N—((R)-1-oxo-1-((2,2,2-trifluoroethyl)amino)propan-2-yl)-2-(trifluoromethyl)benzamide], for which the pest or weed control at 50 µg/cm2 in test [1] and in test [2] was 50 to 100% each time. Also, the YFM rating entry in test [3] is “A (80-100)”.

For the molecule `O=C(CNC(=O)c1ccc(/C(F)=C/C(c2ccc(Cl)c(Cl)c2)C(F)(F)F)cc1C(F)(F)F)NCC(F)(F)F` (stereo not drawn) [F43, (Z)-4-(3-(3,4-Dichlorophenyl)-1,4,4,4-tetrafluorobut-1-en-1-yl)-N-(2-oxo-2-((2,2,2-trifluoroethyl)amino)ethyl)-2-(trifluoromethyl)benzamide], the pest or weed control at 50 µg/cm2 in test [1] and in test [2] was 50 to 100% in each case. Besides, the YFM rating result in test [3] is “A (80-100)”.

As for `C[C@@H](NC(=O)c1ccc(/C(F)=C/C(c2cc(Br)c(Cl)c(Br)c2)C(F)(F)F)cc1C(F)(F)F)C(=O)NCC(F)(F)F` (stereo partly drawn) [F44, 4-((Z)-3-(3,5-Dibromo-4-chlorophenyl)-1,4,4,4-tetrafluorobut-1-en-1-yl)-N—((R)-1-oxo-1-((2,2,2-trifluoroethyl)amino)propan-2-yl)-2-(trifluoromethyl)benzamide], the pest or weed control at 50 µg/cm2 in test [1] and in test [2] was 50 to 100% in each case. Besides, in test [3], the YFM rating entry was “A (80-100)”.

Take `O=C(NC1(C(=O)NCC(F)(F)F)CC1)c1ccc(/C(F)=C/C(c2cc(Br)c(Cl)c(Br)c2)C(F)(F)F)cc1C(F)(F)F` (stereo not drawn) [F45, (Z)-4-(3-(3,5-Dibromo-4-chlorophenyl)-1,4,4,4-tetrafluorobut-1-en-1-yl)-N-(1-((2,2,2-trifluoroethyl)carbamoyl)cyclopropyl)-2-(trifluoromethyl)benzamide]: the pest or weed control at 50 µg/cm2 in test [1] and in test [2] was 50 to 100% throughout. Also, in test [3], the YFM rating result is on record as “A (80-100)”.

In the case of `O=C(CNC(=O)c1ccc(/C(F)=C/C(c2cc(Br)c(Cl)c(Br)c2)C(F)(F)F)cc1C(F)(F)F)NCC(F)(F)F` (stereo not drawn) [F46, (Z)-4-(3-(3,5-Dibromo-4-chlorophenyl)-1,4,4,4-tetrafluorobut-1-en-1-yl)-N-(2-oxo-2-((2,2,2-trifluoroethyl)amino)ethyl)-2-(trifluoromethyl)benzamide], the pest or weed control at 50 µg/cm2 in test [1] and in test [2] was 50 to 100% in each case. Also, the YFM rating result in test [3] is on record as “A (80-100)”.

On to `C=Cc1c(Cl)cc(C(/C=C(\F)c2ccc(C(=O)N[C@H](C)C(=O)NCC(F)(F)F)c(C(F)(F)F)c2)C(F)(F)F)cc1Cl` (stereo partly drawn) [F52, 4-((Z)-3-(3,5-Dichloro-4-vinylphenyl)-1,4,4,4-tetrafluorobut-1-en-1-yl)-N—((R)-1-oxo-1-((2,2,2-trifluoroethyl)amino)propan-2-yl)-2-(trifluoromethyl)benzamide], for which the pest or weed control at 50 µg/cm2 in test [1] and in test [2] was 50 to 100% each time. Also, the YFM rating result in test [3] was “A (80-100)”.

On to `CCN1OC[C@@H](NC(=O)c2ccc(/C(F)=C/C(c3cc(Cl)c(Cl)c(Cl)c3)C(F)(F)F)cc2C(F)(F)F)C1=O` (stereo partly drawn) [F53, N—((R)-2-Ethyl-3-oxoisoxazolidin-4-yl)-4-((Z)-1,4,4,4-tetrafluoro-3-(3,4,5-trichlorophenyl)but-1-en-1-yl)-2-(trifluoromethyl)benzamide], for which the pest or weed control at 50 µg/cm2 in test [1] and in test [2] was 50 to 100% each time. The YFM rating result in test [3] is recorded as “A (80-100)”.

With `C[C@@H](NC(=O)c1ccc(/C(F)=C/C(c2cc(Cl)c(Br)c(Cl)c2)C(F)(F)F)cc1C(F)(F)F)C(=O)NCC(F)(F)F` (stereo partly drawn) [F59, 4-((Z)-3-(4-Bromo-3,5-dichlorophenyl)-1,4,4,4-tetrafluorobut-1-en-1-yl)-N—((R)-1-oxo-1-((2,2,2-trifluoroethyl)amino)propan-2-yl)-2-(trifluoromethyl)benzamide], the pest or weed control at 50 µg/cm2 in test [1] and in test [2] was 50 to 100% in each case. Moreover, the YFM rating result in test [3] was “A (80-100)”.

As to `O=C(NC1(C(=O)NCC(F)(F)F)CC1)c1ccc(/C(F)=C/C(c2cc(Cl)c(Br)c(Cl)c2)C(F)(F)F)cc1C(F)(F)F` (stereo not drawn) [F60, (Z)-4-(3-(4-Bromo-3,5-dichlorophenyl)-1,4,4,4-tetrafluorobut-1-en-1-yl)-N-(1-((2,2,2-trifluoroethyl)carbamoyl)cyclopropyl)-2-(trifluoromethyl)benzamide], the pest or weed control at 50 µg/cm2 in test [1] and in test [2] was 50 to 100% throughout. For the same molecule, in test [3], the YFM rating result was “A (80-100)”.

As to `C=Cc1c(Cl)cc(C(/C=C(\F)c2ccc(C(=O)NCC(=O)NCC(F)(F)F)c(C(F)(F)F)c2)C(F)(F)F)cc1Cl` (stereo not drawn) [F61, (Z)-4-(3-(3,5-Dichloro-4-vinylphenyl)-1,4,4,4-tetrafluorobut-1-en-1-yl)-N-(2-oxo-2-((2,2,2-trifluoroethyl)amino)ethyl)-2-(trifluoromethyl)benzamide], the pest or weed control at 50 µg/cm2 in test [1] and in test [2] was 50 to 100% throughout. For the same molecule, the YFM rating result in test [3] was “A (80-100)”.

For `CN(CC(=O)NCC(F)(F)F)C(=O)c1ccc(/C(F)=C/C(c2cc(Cl)c(Cl)c(Cl)c2)C(F)(F)F)cc1C(F)(F)F` (stereo not drawn) [F68, (Z)—N-Methyl-N-(2-oxo-2-((2,2,2-trifluoroethyl)amino)ethyl)-4-(1,4,4,4-tetrafluoro-3-(3,4,5-trichlorophenyl)but-1-en-1-yl)-2-(trifluoromethyl)benzamide], the pest or weed control at 50 µg/cm2 in test [1] and in test [2] was 50 to 100% throughout. For the same molecule, the YFM rating entry in test [3] was “A (80-100)”.

Take `Cc1cc(C(/C=C(\F)c2ccc(C(=O)N[C@H](C)C(=O)NCC(F)(F)F)c(C(F)(F)F)c2)C(F)(F)F)cc(C)c1Cl` (stereo partly drawn) [F69, 4-((Z)-3-(4-Chloro-3,5-dimethylphenyl)-1,4,4,4-tetrafluorobut-1-en-1-yl)-N—((R)-1-oxo-1-((2,2,2-trifluoroethyl)amino)propan-2-yl)-2-(trifluoromethyl)benzamide]: the pest or weed control at 50 µg/cm2 in test [1] and in test [2] was 50 to 100% in each case. Moreover, the YFM rating entry in test [3] is on record as “A (80-100)”.

With `Cc1cc(C(/C=C(\F)c2ccc(C(=O)NC3(C(=O)NCC(F)(F)F)CC3)c(C(F)(F)F)c2)C(F)(F)F)cc(C)c1Cl` (stereo not drawn) [F70, (Z)-4-(3-(4-Chloro-3,5-dimethylphenyl)-1,4,4,4-tetrafluorobut-1-en-1-yl)-N-(1-((2,2,2-trifluoroethyl)carbamoyl)cyclopropyl)-2-(trifluoromethyl)benzamide], the pest or weed control at 50 µg/cm2 in test [1] and in test [2] was 50 to 100% throughout. For the same molecule, in test [3], the YFM rating entry is “A (80-100)”.

Turning to `Cc1cc(C(/C=C(\F)c2ccc(C(=O)NCC(=O)NCC(F)(F)F)c(C(F)(F)F)c2)C(F)(F)F)cc(C)c1Cl` (stereo not drawn) [F71, (Z)-4-(3-(4-Chloro-3,5-dimethylphenyl)-1,4,4,4-tetrafluorobut-1-en-1-yl)-N-(2-oxo-2-((2,2,2-trifluoroethyl)amino)ethyl)-2-(trifluoromethyl)benzamide], the pest or weed control at 50 µg/cm2 in test [1] and in test [2] was 50 to 100% each time. Moreover, the YFM rating result in test [3] is listed as “B (More than 0-Less than 80)”.

Turning to `C[C@@H](NC(=O)c1ccc(/C(F)=C/C(c2cc(Cl)cc(Cl)c2)C(F)(F)F)cc1C(F)(F)F)C(=O)N(C)CC(F)(F)F` (stereo partly drawn) [F72, 4-((Z)-3-(3,5-Dichlorophenyl)-1,4,4,4-tetrafluorobut-1-en-1-yl)-N—((R)-1-(methyl(2,2,2-trifluoroethyl)amino)-1-oxopropan-2-yl)-2-(trifluoromethyl)benzamide], the pest or weed control at 50 µg/cm2 in test [1] and in test [2] was 50 to 100% throughout. Besides, in test [3], the YFM rating result is recorded as “A (80-100)”.

Consider `C[C@@H](NC(=O)c1ccc(/C(F)=C/C(c2ccc(Cl)c(Cl)c2)C(F)(F)F)cc1C(F)(F)F)C(=O)N(C)CC(F)(F)F` (stereo partly drawn) [F73, 4-((Z)-3-(3,4-Dichlorophenyl)-1,4,4,4-tetrafluorobut-1-en-1-yl)-N—((R)-1-(methyl(2,2,2-trifluoroethyl)amino)-1-oxopropan-2-yl)-2-(trifluoromethyl)benzamide], for which the pest or weed control at 50 µg/cm2 in test [1] and in test [2] was 50 to 100% throughout. Moreover, in test [3], the YFM rating result is reported as “A (80-100)”.

Turning to `CN(CC(F)(F)F)C(=O)CNC(=O)c1ccc(/C(F)=C/C(c2ccc(Cl)c(Cl)c2)C(F)(F)F)cc1C(F)(F)F` (stereo not drawn) [F74, (Z)-4-(3-(3,4-Dichlorophenyl)-1,4,4,4-tetrafluorobut-1-en-1-yl)-N-(2-(methyl(2,2,2-trifluoroethyl)amino)-2-oxoethyl)-2-(trifluoromethyl)benzamide], the pest or weed control at 50 µg/cm2 in test [1] and in test [2] was 50 to 100% in each case. For the same molecule, the YFM rating result in test [3] was “A (80-100)”.

The record behind these values is patent publication US10251394B2, “Molecules having pesticidal utility, and intermediates, compositions, and processes, related thereto” (Dow AgroSciences LLC, priority 2016, dated 2019).
